Source: PubChem BioAssay (NCI)
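1) Cells in 96-well plates. 2) Compound, 48 h, 5 concentrations. 3) Linear interpolation between surrounding doses. 4) Unreached endpoint = highest concentration. Here, GI50 denotes the concentration required for 50% inhibition of growth. TGI is the concentration that stops growth completely.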

Tests used:
Assay in all cases: NCI tumour cell line growth inhibition, 48 h
[1] = system: M14 melanoma
[2] = system: SR leukemia
[3] = system: HCC-2998 colon
[4] = system: COLO 205 colon
[5] = system: RPMI-8226 leukemia
[6] = system: NCI-H226 lung
[7] = system: U251 CNS
[8] = system: CAKI-1 renal
[9] = system: OVCAR-5 ovarian
[10] = system: T-47D breast

SMILES	GI50 [1]	TGI [1]	GI50 [2]	TGI [2]	GI50 [3]	TGI [3]	GI50 [4]	TGI [4]	GI50 [5]	TGI [5]	GI50 [6]	TGI [6]	GI50 [7]	TGI [7]	GI50 [8]	TGI [8]	GI50 [9]	TGI [9]	GI50 [10]	TGI [10]
COc1cc(C2C(C#N)=C(N)Oc3cc(O)ccc32)cc(OC)c1OC (stereo not given)	0.409 µM	> 100 µM	0.335 µM	> 100 µM	0.964 µM	> 54.8 µM	0.583 µM	4.1 µM	0.65 µM	> 89.6 µM	6.98 µM	> 100 µM	0.439 µM	> 100 µM	0.97 µM	> 100 µM	2.36 µM	> 100 µM		
CN(C)/C(N)=N/C(N)=S		> 100 µM		> 100 µM		> 100 µM		> 100 µM		> 100 µM		> 100 µM		> 100 µM		> 100 µM		> 100 µM		
CC([O-])C(=O)[O-].NCC1CCC1CN.[Pt+4] (stereo not given)	> 10 µM	> 10 µM			> 10 µM	> 10 µM	> 10 µM	> 10 µM	> 10 µM	> 10 µM	> 10 µM	> 10 µM	> 10 µM	> 10 µM	> 10 µM	> 10 µM	> 10 µM	> 10 µM	> 10 µM	> 10 µM
COC(=O)C1C2CCCN2OC1(C)CO (stereo not given)		> 100 µM		> 100 µM				> 100 µM		> 100 µM		> 100 µM		> 100 µM		> 100 µM		> 100 µM		> 100 µM
CC/C=C\C/C=C\C[C@H]1C/C=C2/C(=O)C=C[C@H]2C/C=C\CCC(=O)O1	4.48 µM	> 14.3 µM			2.77 µM	5.37 µM	3.11 µM	6.71 µM	1.29 µM	7.45 µM	2.78 µM	8.54 µM	3.06 µM	9.71 µM	3.13 µM	8.58 µM	4.13 µM	> 14.3 µM	4.62 µM	> 14.3 µM
COc1ccc(CNc2nc(NCc3ccc(OC)cc3)c3n[nH]c(C(C)C)c3n2)cc1	2.28 µM	5 µM	2.48 µM	6.17 µM	2.43 µM	5.99 µM			3.27 µM	12.5 µM	14.1 µM	59.8 µM	4.22 µM	21.1 µM	6.44 µM	> 100 µM	8.65 µM	56.6 µM	3.38 µM	42.6 µM
COc1cc(-c2cc(CCC(=O)Nc3ccccc3[N+](=O)[O-])n(-c3ccc([N+](=O)[O-])cc3[N+](=O)[O-])n2)ccc1O	> 100 µM	> 100 µM		> 10 µM	> 100 µM	> 100 µM	> 100 µM	> 100 µM	> 100 µM	> 100 µM	> 100 µM	> 100 µM	> 100 µM	> 100 µM	> 100 µM	> 100 µM	> 100 µM	> 100 µM		
CCc1ccc(Nc2cc(C)nc3nc(C)nn23)cc1			53.1 µM	> 100 µM	> 100 µM	> 100 µM	66.9 µM	> 100 µM	32 µM	> 100 µM	85 µM	> 100 µM	75.2 µM	> 100 µM	40.1 µM	> 100 µM	> 100 µM	> 100 µM	21.3 µM	> 100 µM
COc1ccc(/C(C)=N/NC(N)=S)c(OC)c1		> 100 µM		> 100 µM		> 100 µM		> 100 µM		> 100 µM		> 100 µM		> 100 µM		> 100 µM		> 100 µM		
C=C(CN1CCN(c2cccc(F)c2)CC1)c1ccc(C(=O)Nc2ccccc2N)cc1	0.311 µM	2.38 µM			2.98 µM	11 µM	2.93 µM	9.09 µM	0.429 µM	2.89 µM	4.17 µM	35.2 µM	1.41 µM	43 µM	0.629 µM	7.74 µM	2.61 µM	> 100 µM	4.38 µM	> 100 µM
CN1CCCCC1CCN1c2ccccc2Sc2ccc(S(C)=O)cc21 (stereo not given)		> 100 µM		> 100 µM				> 100 µM		> 100 µM		> 100 µM		> 100 µM		> 100 µM		> 100 µM		> 100 µM
CN(C)CCC1(C2=CCCC2)CC/C(=C\c2ccccc2)C1=O (stereo not given)		30.2 µM		> 100 µM		29.2 µM		28.3 µM		35.1 µM		31.1 µM		30.3 µM		26.3 µM		35.7 µM		
COc1cc2c3c(c4c5ccccc5[nH]c4c2c(OC)c1OC)C(=O)N(CCN1CCCCC1)C3=O	1.82 µM	4.25 µM			1.32 µM	3.45 µM	0.849 µM	3.25 µM	1.06 µM	4.17 µM	1.08 µM	4.57 µM	1.12 µM	2.49 µM	0.811 µM	2.3 µM	1.29 µM	3.05 µM	6.09 µM	> 25.5 µM
O=C1OC2C(O)C(=O)OC2C1O (stereo not given)		> 100 µM		> 100 µM		> 100 µM		> 100 µM				> 100 µM		> 100 µM		> 100 µM		> 100 µM		> 100 µM
O=C([O-])c1ccccc1Nc1ccccc1[O-].[Ni+3].[OH3+].[OH3+].[OH3+]	> 100 µM	> 100 µM	> 100 µM	> 100 µM	> 100 µM	> 100 µM	> 100 µM	> 100 µM	> 100 µM	> 100 µM	88.4 µM	> 100 µM	> 100 µM	> 100 µM	> 100 µM	> 100 µM	> 100 µM	> 100 µM		
CC(C)CC(=O)NS(=O)(=O)c1ccccc1		> 100 µM		> 100 µM		> 100 µM		> 100 µM		> 100 µM		> 100 µM		> 100 µM		> 100 µM		> 100 µM		
CCN(CC)CC(O)C1CCC(c2ccccc2)CC1 (stereo not given)		80.4 µM				11.5 µM		29.2 µM		39 µM		33.3 µM		62.7 µM		42.2 µM		88.9 µM		> 100 µM
COc1ccc(C#CCC(OC2OC(CO)C(O)C(O)C2O)C(O)c2ccc(OC)c(OC)c2)cc1OC (stereo not given)		> 100 µM		> 100 µM		> 100 µM		> 100 µM		> 100 µM		> 100 µM		> 100 µM		> 100 µM		> 100 µM		

SMILES	GI50 [1]	TGI [1]	GI50 [2]	TGI [2]	GI50 [3]	TGI [3]	GI50 [4]	TGI [4]	GI50 [5]	TGI [5]	GI50 [6]	TGI [6]	GI50 [7]	TGI [7]	GI50 [8]	TGI [8]	GI50 [9]	TGI [9]	GI50 [10]	TGI [10]
COc1ccc(CC2C3=C(CCCC3)CCN2C)cc1 (stereo not given)		> 100 µM				> 100 µM		> 100 µM		> 100 µM		> 100 µM		> 100 µM		> 100 µM		> 100 µM		> 100 µM
CNC1C(OC2C(OC3C(O)C(O)C(O)C(O)C3O)OC(C)C2(O)CO)OC(CO)C(O)C1O (stereo not given) (tested in a mixture with another compound)		> 100 µM		> 100 µM		> 100 µM		> 100 µM		> 100 µM		> 100 µM		> 100 µM				> 100 µM		> 100 µM
CCC/C(=N\NC(=O)c1cc2ccccc2cc1O)C(CC)C(=O)CCC(=O)N(Cc1ccccc1)Cc1ccccc1 (stereo not given)		> 100 µM		> 100 µM		> 100 µM		69.5 µM		> 100 µM		> 100 µM		> 100 µM		> 100 µM		> 100 µM		
CC(=O)c1ccc(NCN2C(=O)c3ccccc3C2=O)cc1		> 100 µM				> 100 µM		> 100 µM		> 100 µM				> 100 µM		> 100 µM		> 100 µM		> 100 µM
CCN1CCN(C(=O)[C@]23CCC(C)(C)C[C@@H]2C2=CC[C@@H]4[C@@]5(C)C/C(=C/c6cccnc6)C(=O)C(C)(C)[C@@H]5CC[C@@]4(C)[C@]2(C)CC3)CC1	1.6 µM	3.15 µM	0.706 µM	5.1 µM	1.58 µM	3.12 µM	1.89 µM	4.74 µM	0.959 µM	5.13 µM			1.58 µM	3.11 µM	2.08 µM	11.8 µM	1.56 µM	3.35 µM	2.61 µM	13.7 µM
CCN(CC(COc1ccc2c(c1)[n+]([O-])nc(N)[n+]2[O-])OC(C)=O)C(C)=O (stereo not given)		> 100 µM		> 100 µM				> 100 µM		> 100 µM		> 100 µM		> 100 µM		> 100 µM		> 100 µM		> 100 µM
O=C(CCl)Nc1ccc2c(c1)C(=O)c1ccc(NC(=O)CCl)cc1C2=O	0.236 µM	0.781 µM	0.0959 µM	1.98 µM	1.77 µM	3.79 µM			0.434 µM	2.23 µM	0.229 µM	0.711 µM			0.683 µM	1.98 µM	0.371 µM	1.63 µM	1.22 µM	3.95 µM
CC1=CC2C(C(C)C)CC1C1C(=O)OC(=O)C21 (stereo not given)		> 100 µM				> 100 µM		> 100 µM				> 100 µM		> 100 µM				> 100 µM		> 100 µM
CC(C)Oc1ccc(C(=O)N[C@H](CNC(=O)CN(C)C)Cc2ccc(-c3cn4cccc([C@H](C)O)c4n3)cc2)cc1Cl	0.0301 µM	0.15 µM			0.0695 µM	17.3 µM	0.0396 µM	13.2 µM	0.0399 µM	19.8 µM	10.9 µM	28.8 µM	0.0534 µM	19.2 µM	0.538 µM	17.9 µM	0.0771 µM	22.2 µM	3.72 µM	30.3 µM
CN1CCCN(C(c2ccccc2)c2ccc(Br)cc2)CC1 (stereo not given)	1.61 µM	2.99 µM			4.55 µM	16 µM	3.93 µM	16.2 µM	9.04 µM	36.2 µM	7.23 µM	20.8 µM	3 µM	10.3 µM	3.24 µM	13.4 µM	10.7 µM	22.5 µM	3.18 µM	19.2 µM
O=C1C(N2C(=O)c3ccccc3C2=O)CN1C(COCc1ccccc1)c1ccc(OCc2ccccc2)cc1 (stereo not given)		> 100 µM		> 100 µM		> 100 µM		> 100 µM		> 100 µM		> 100 µM		> 100 µM		> 100 µM		> 100 µM		
CC1=C(C(=O)Nc2ccccc2C)C(c2ccc(C3C(C(=O)Nc4ccccc4C)=CNC=C3C(=O)Nc3ccccc3C)cc2)C(C(=O)Nc2ccccc2C)=C(C)N1		33 µM		16.7 µM		31.8 µM		50.1 µM		> 73 µM		33.5 µM		24.7 µM		45.7 µM		44.4 µM		
Cc1nc2cc(N)c(Cl)cc2[nH]1		> 100 µM		> 100 µM				> 100 µM		> 100 µM		> 100 µM		> 100 µM		> 100 µM		> 100 µM		> 100 µM
COC(=O)C(Cc1nc2ccccc2[nH]c1=O)C(=O)C(=O)Nc1ccc(OC)cc1[N+](=O)[O-] (stereo not given)		> 100 µM		> 100 µM		> 100 µM		> 100 µM		> 100 µM		> 100 µM		> 100 µM		> 100 µM		> 100 µM		
CCOC(=O)/C=C/c1ccccn1		> 100 µM		> 100 µM		> 100 µM		> 100 µM		> 100 µM		> 100 µM		> 100 µM		> 100 µM		> 100 µM		
CC[C@]12CCCN3CC[C@]4(C(=C(C(=O)OC)C1)Nc1ccccc14)[C@@H]32	20.5 µM	51.7 µM	17.2 µM	> 100 µM	14.6 µM	29 µM	16.9 µM	35.7 µM	19.4 µM	51.2 µM			15.1 µM	29.6 µM	11.8 µM	32.8 µM	15.9 µM	34.1 µM	16.6 µM	80.5 µM
N#CC1=C(c2ccccc2)C(O)(c2ccccc2)NC1=O (stereo not given)		> 100 µM		> 100 µM		> 100 µM		> 100 µM		> 100 µM		> 100 µM		> 100 µM		> 100 µM		90.1 µM		
